In patent US20200405696A1, “INHIBITORS OF INDOLEAMINE 2,3-DIOXYGENASE AND/OR TRYPTOPHAN 2,3-DIOXYGENASE” (IDORSIA PHARMACEUTICALS LTD, priority 2018, published 2020):

Assays:
[1] = biological target: T1, Recombinant full-length human IDO1 (Homo sapiens, UniProt P14902); assay: IDO1 enzymatic assay (NFK quantified by LCMS); format: biochemical; settings: 2 nM enzyme, 5 μM L-tryptophan, pH6.5, 30 minutes pre-incubation at RT; mean values when measured multiple times; read-out: hIDO activity (IC50 in nM)
T1 construct: Recombinant full-length human IDO1 with a N-terminal hexahistidine tag; hexahistidine (His6) (N); made in house; host or cells: E. coli
Summary of the method: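 His-tagged human IDO1 (2 nM) in pH 6.5 phosphate buffer with ascorbate, methylene blue and catalase was preincubated with compound (10 μM–0.5 nM, 0.6% DMSO) for 30 min at RT. The reaction then ran with 5 μM L-Trp for 30 min. NFK was measured by LCMS against a d5-Trp standard, and IC50 was obtained by four-parameter fit.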

[2] = biological target: T2, Recombinant human TDO comprising amino acids 19-407 (Homo sapiens, UniProt P48775); assay: TDO2 enzymatic assay (NFK quantified by LCMS); format: biochemical; settings: 15 nM enzyme, 200 μM L-tryptophan, pH7, 30 minutes pre-incubation at RT; mean values when measured multiple times; read-out: hTDO activity (IC50 in nM)
T2 construct: Recombinant human TDO comprising amino acids 19-407 with a N-terminal hexahistidine tag; hexahistidine (His6) (N); made in house; host or cells: E. coli
Summary of the method: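 NFK formed over 30 min at RT from 200 μM L-tryptophan was measured by LCMS, normalized to d5-tryptophan, after compound (0.5 nM–10 μM, duplicates, 0.6% DMSO) was preincubated 30 min with 15 nM recombinant His-tagged TDO 19-407 in phosphate buffer pH 7. IC50 from four-parameter logistic fit; repeats averaged.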

T2 sequence (P48775 19-406 limits assumed): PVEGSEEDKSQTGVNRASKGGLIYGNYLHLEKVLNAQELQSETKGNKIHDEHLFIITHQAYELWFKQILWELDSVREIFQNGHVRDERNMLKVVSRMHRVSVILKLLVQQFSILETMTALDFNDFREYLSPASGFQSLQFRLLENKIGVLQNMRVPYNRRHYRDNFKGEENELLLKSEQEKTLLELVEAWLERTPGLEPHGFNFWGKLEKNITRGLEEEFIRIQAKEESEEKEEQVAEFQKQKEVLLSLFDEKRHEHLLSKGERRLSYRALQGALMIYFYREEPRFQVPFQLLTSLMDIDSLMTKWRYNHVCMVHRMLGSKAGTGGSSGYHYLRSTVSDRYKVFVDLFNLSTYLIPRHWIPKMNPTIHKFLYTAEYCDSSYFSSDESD
T1 sequence (P14902 whole entry): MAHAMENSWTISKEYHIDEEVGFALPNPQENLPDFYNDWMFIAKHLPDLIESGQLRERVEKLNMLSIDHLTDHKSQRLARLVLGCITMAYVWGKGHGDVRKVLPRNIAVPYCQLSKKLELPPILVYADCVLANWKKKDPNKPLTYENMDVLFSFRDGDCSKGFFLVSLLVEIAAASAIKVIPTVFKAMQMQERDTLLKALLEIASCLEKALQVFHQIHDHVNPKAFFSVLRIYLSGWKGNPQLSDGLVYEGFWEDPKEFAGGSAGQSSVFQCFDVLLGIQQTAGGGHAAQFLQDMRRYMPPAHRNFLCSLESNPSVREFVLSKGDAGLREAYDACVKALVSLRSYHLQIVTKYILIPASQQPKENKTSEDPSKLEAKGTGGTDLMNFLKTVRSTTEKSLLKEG

Structure (SMILES) | IC50 [1] | IC50 [2]
COc1ccc(-n2cc(C(O)c3c(C4CC4)sc4cncn34)cn2)cc1 (racemic) [Example 99, rac-(2-Cyclopropyl-imidazo[5,1-b]thiazol-3-yl)-[1-(4-methoxy-phenyl)-1H-pyrazol-4-yl]-methanol] | 31.8 nM | 3570 nM
OCCCOc1ccc(-n2cc(C(O)c3c(C4CC4)sc4cncn34)nn2)cc1 (racemic) [Example 137, rac-3-(4-{4-[(2-Cyclopropyl-imidazo[5,1-b]thiazol-3-yl)-hydroxy-methyl]-[1,2,3]triazol-1-yl}-phenoxy)-propan-1-ol] | 11.1 nM | > 10200 nM
COc1ccc(-n2cc(C(O)c3c(C4CC4)sc4cncn34)nn2)cc1C#N (racemic) [Example 135, rac-5-{4-[(2-Cyclopropyl-imidazo[5,1-b]thiazol-3-yl)-hydroxy-methyl]-[1,2,3]triazol-1-yl}-2-methoxy-benzonitrile] | 14 nM | > 10200 nM
CC(F)(F)c1sc2cncn2c1C(O)c1cn(-c2ccc(O)c(Cl)c2)nn1 (racemic) [Example 329, rac-2-Chloro-4-(4-{[2-(1,1-difluoro-ethyl)-imidazo[5,1-b]thiazol-3-yl]-hydroxy-methyl}-[1,2,3]triazol-1-yl)-phenol] | 2.49 nM | 9930 nM
OC(c1cn(Cc2ccccc2)nn1)c1c(C2CC2)sc2cncn12 (racemic) [Example 1, rac-(1-Benzyl-1H-[1,2,3]triazol-4-yl)-(2-cyclopropyl-imidazo[5,1-b]thiazol-3-yl)-methanol] | 90.3 nM | > 10200 nM
O[C@@H](c1cn(-c2ccc(OCCC3(O)CC3)cc2)nn1)c1c(C2CC2)sc2cncn12 [Example 142a, 1-[2-(4-{4-[(R)-(2-Cyclopropyl-imidazo[5,1-b]thiazol-3-yl)-hydroxy-methyl]-[1,2,3]triazol-1-yl}-phenoxy)-ethyl]-cyclopropanol] | 9.51 nM | > 10200 nM
CC=Cc1sc2cncn2c1C(O)c1cn(-c2ccc(OC)cc2)nn1 (racemic) [Example 263, rac-[1-(4-Methoxy-phenyl)-1H-[1,2,3]triazol-4-yl]-[((E)-2-(prop-1-enyl))-imidazo[5,1-b]thiazol-3-yl]-methanol] | 20.5 nM | 830 nM
OC(c1cn(-c2ccc(OCC3CCCO3)cc2)nn1)c1c(C2CC2)sc2cncn12 (racemic) [Example 90, rac-(2-Cyclopropyl-imidazo[5,1-b]thiazol-3-yl)-{1-[4-(tetrahydro-furan-2-ylmethoxy)-phenyl]-1H-[1,2,3]triazol-4-yl}-methanol] | 18.7 nM | > 10200 nM
COCCOc1ccc(-n2cc(C(O)c3c(C4CC4)sc4cncn34)nn2)cc1 (racemic) [Example 91, rac-(2-Cyclopropyl-imidazo[5,1-b]thiazol-3-yl)-{1-[4-(2-methoxy-ethoxy)-phenyl]-1H-[1,2,3]triazol-4-yl}-methanol] | 12.9 nM | > 10200 nM
OC(c1cn(-c2ccc(OCC3CCCCO3)cc2)nn1)c1c(C2CC2)sc2cncn12 (centres unmarked) [Example 143, (2-Cyclopropyl-imidazo[5,1-b]thiazol-3-yl)-{1-[4-(tetrahydro-pyran-2-ylmethoxy)-phenyl]-1H-[1,2,3]triazol-4-yl}-methanol] | 18.1 nM | > 10200 nM
CS(=O)(=O)CCOc1ccc(-n2cc(C(O)c3c(C4CC4)sc4cncn34)nn2)cc1 (racemic) [Example 205, rac-(2-Cyclopropyl-imidazo[5,1-b]thiazol-3-yl)-{1-[4-(2-methanesulfonyl-ethoxy)-phenyl]-1H-[1,2,3]triazol-4-yl}-methanol] | 626 nM | > 10200 nM
OC(c1cn(-c2ccc(OCC3(F)COC3)cc2)nn1)c1c(C2CC2)sc2cncn12 (racemic) [Example 145, rac-(2-Cyclopropyl-imidazo[5,1-b]thiazol-3-yl)-{1-[4-(3-fluoro-oxetan-3-ylmethoxy)-phenyl]-1H-[1,2,3]triazol-4-yl}-methanol] | 7.77 nM | > 10200 nM
O[C@@H](c1cn(-c2ccc(OCC3CC3)cc2)nn1)c1c(C2CC2)sc2cncn12 [Example 35a, (R)-(2-Cyclopropyl-imidazo[5,1-b]thiazol-3-yl)-[1-(4-cyclopropylmethoxy-phenyl)-1H-[1,2,3]triazol-4-yl]-methanol] | 9.7 nM | > 10200 nM
CCc1sc2cncn2c1C(O)c1cn(-c2ccc(C(=O)NCCOC)cc2)nn1 (racemic) [Example 196, rac-4-{4-[(2-Ethyl-imidazo[5,1-b]thiazol-3-yl)-hydroxy-methyl]-[1,2,3]triazol-1-yl}-N-(2-methoxy-ethyl)-benzamide] | 17.1 nM | > 10200 nM
COc1ccc(-n2cc(C(O)c3c(C4=CCCC4)sc4cncn34)nn2)cc1 (racemic) [Example 259, rac-(2-(Cyclopent-1-enyl)-imidazo[5,1-b]thiazol-3-yl)-[1-(4-methoxy-phenyl)-1H-[1,2,3]triazol-4-yl]-methanol] | 85.6 nM | > 10200 nM
CCc1sc2cncn2c1C(O)c1cn(-c2cc(F)c(O)cc2F)nn1 (racemic) [Example 332, rac-4-{4-[(2-Ethyl-imidazo[5,1-b]thiazol-3-yl)-hydroxy-methyl]-[1,2,3]triazol-1-yl}-2,5-difluoro-phenol] | 5.37 nM | 2820 nM
COc1cc(-n2cc(C(O)c3c(C4CC4)sc4cncn34)nn2)cnc1OC (racemic) [Example 80, rac-(2-Cyclopropyl-imidazo[5,1-b]thiazol-3-yl)-[1-(5,6-dimethoxy-pyridin-3-yl)-1H-[1,2,3]triazol-4-yl]-methanol] | 51.2 nM | > 10200 nM
O=C(NCCO)c1ccc(-n2cc(C(O)c3c(C4CC4)sc4cncn34)nn2)cc1 (racemic) [Example 186, rac-4-{4-[(2-Cyclopropyl-imidazo[5,1-b]thiazol-3-yl)-hydroxy-methyl]-[1,2,3]triazol-1-yl}-N-(2-hydroxy-ethyl)-benzamide] | 17.3 nM | > 10200 nM
C=C(C)c1sc2cncn2c1C(O)c1cn(-c2ccc(OC)cc2)nn1 (racemic) [Example 269, rac-(2-Isopropenyl-imidazo[5,1-b]thiazol-3-yl)-[1-(4-methoxy-phenyl)-1H-[1,2,3]triazol-4-yl]-methanol] | 7.26 nM | > 10200 nM
COc1ccc(-n2nnc(C(O)c3c(C4CC4)sc4cncn34)c2C)cc1 (racemic) [Example 252, rac-(2-Cyclopropyl-imidazo[5,1-b]thiazol-3-yl)-[1-(4-methoxy-phenyl)-5-methyl-1H-[1,2,3]triazol-4-yl]-methanol] | 4.13 nM | 7010 nM
O=C(NC1CC1)c1ccc(-n2cc(C(O)c3c(C4CC4)sc4cncn34)nn2)cc1 (racemic) [Example 105, rac-N-Cyclopropyl-4-{4-[(2-cyclopropyl-imidazo[5,1-b]thiazol-3-yl)-hydroxy-methyl]-[1,2,3]triazol-1-yl}-benzamide] | 22.1 nM | > 10200 nM
CCc1sc2cncn2c1C(O)c1cn(-c2ccc(S(=O)(=O)N(CC)CC)cc2)nn1 (racemic) [Example 243, rac-N,N-Diethyl-4-{4-[(2-ethyl-imidazo[5,1-b]thiazol-3-yl)-hydroxy-methyl]-[1,2,3]triazol-1-yl}-benzenesulfonamide] | 101 nM | > 10200 nM
NC(=O)c1ccc(-n2cc(C(O)c3c(C4CC4)sc4cncn34)nn2)cc1 (racemic) [Example 185, rac-4-{4-[(2-Cyclopropyl-imidazo[5,1-b]thiazol-3-yl)-hydroxy-methyl]-[1,2,3]triazol-1-yl}-benzamide] | 14.9 nM | > 10200 nM
Cc1sc2cncn2c1C(O)c1cn(-c2cncc3ccccc23)nn1 (racemic) [Example 61, rac-(1-Isoquinolin-4-yl-1H-[1,2,3]triazol-4-yl)-(2-methyl-imidazo[5,1-b]thiazol-3-yl)-methanol] | 493 nM | > 10200 nM
CCc1sc2cncn2c1C(O)c1cn(-c2ccc(C(=O)NCCCOC)cc2)nn1 (racemic) [Example 126, rac-4-{4-[(2-Ethyl-imidazo[5,1-b]thiazol-3-yl)-hydroxy-methyl]-[1,2,3]triazol-1-yl}-N-(3-methoxy-propyl)-benzamide] | 20.1 nM | > 10200 nM
CC(C)(O)CCOc1ccc(-n2cc(C(O)c3c([C@@H]4C[C@H]4F)sc4cncn34)nn2)cc1Cl (relative stereo) [Example 308, 4-[2-Chloro-4-(4-{[2-(trans-2-fluoro-cyclopropyl)-imidazo[5,1-b]thiazol-3-yl]-hydroxy-methyl}-[1,2,3]triazol-1-yl)-phenoxy]-2-methyl-butan-2-ol] | 12.7 nM | > 10200 nM
CCc1sc2cncn2c1C(O)c1cn(-c2ccc(O)c(Cl)c2)nn1 (racemic) [Example 323, rac-2-Chloro-4-{4-[(2-ethyl-imidazo[5,1-b]thiazol-3-yl)-hydroxy-methyl]-[1,2,3]triazol-1-yl}-phenol] | 3.82 nM | 1210 nM
COC(=O)c1cc(-n2cc(C(O)c3c(C4CC4)sc4cncn34)nn2)cnc1OC (racemic) [Example 70, rac-5-{4-[(2-Cyclopropyl-imidazo[5,1-b]thiazol-3-yl)-hydroxy-methyl]-[1,2,3]triazol-1-yl}-2-methoxy-nicotinic acid methyl ester] | 201 nM | > 10200 nM
